Patent US9029370B2, “Substituted benzamide derivatives” (Hoffmann-La Roche Inc., priority 2011, dated 2015)
Counter-ions that a name gives are not always drawn.

Key:
mouse TAAR1 = mouse TAAR1 (Mus musculus (Mouse), UniProt Q923Y8); test: Radioligand binding assay on mouse TAAR1; conditions: mouse TAAR1, HEK-293 membranes; first value of the pair (before the slash); read-out: Ki (μM) mouse/rat
Procedure, shortened: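 Membranes from HEK293 cells stably expressing mouse TAAR1, in HEPES-NaOH pH 7.4 with 0.1 mM EDTA, were incubated 1 h at 4°C with tritiated (S)-4-[(ethyl-phenyl-amino)-methyl]-4,5-dihydro-oxazol-2-ylamine and compound (10 pM–10 μM, duplicates). Nonspecific binding defined with 10 μM unlabeled ligand; bound radioactivity by filtration and scintillation counting.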

rat TAAR1 = rat TAAR1 (Rattus norvegicus (Rat), UniProt Q923Y9); test: Radioligand binding assay on rat TAAR1; conditions: rat TAAR1, HEK-293 membranes; second value of the pair (line below); read-out: Ki (μM) mouse/rat
Chain of rat TAAR1 (Q923Y9 whole entry): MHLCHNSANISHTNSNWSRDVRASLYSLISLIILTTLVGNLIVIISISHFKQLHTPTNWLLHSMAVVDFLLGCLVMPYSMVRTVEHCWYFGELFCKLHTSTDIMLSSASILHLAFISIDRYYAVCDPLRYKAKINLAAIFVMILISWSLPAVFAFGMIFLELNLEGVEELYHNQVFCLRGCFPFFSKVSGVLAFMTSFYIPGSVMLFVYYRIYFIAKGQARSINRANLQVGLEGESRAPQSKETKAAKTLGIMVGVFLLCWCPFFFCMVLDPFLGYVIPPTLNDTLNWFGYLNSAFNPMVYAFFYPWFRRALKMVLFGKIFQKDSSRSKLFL
Procedure, shortened: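 Membranes from HEK293 cells stably expressing rat TAAR1 were incubated 1 hr at 4 °C with ^3[H]-(S)-4-[(ethyl-phenyl-amino)-methyl]-4,5-dihydro-oxazol-2-ylamine; nonspecific binding was defined with 10 μM unlabeled ligand. Compounds were tested at 10 pM to 10 μM in duplicate. Bound radioactivity was read by filtration and scintillation counting.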

Chain of mouse TAAR1 (Q923Y8 whole entry): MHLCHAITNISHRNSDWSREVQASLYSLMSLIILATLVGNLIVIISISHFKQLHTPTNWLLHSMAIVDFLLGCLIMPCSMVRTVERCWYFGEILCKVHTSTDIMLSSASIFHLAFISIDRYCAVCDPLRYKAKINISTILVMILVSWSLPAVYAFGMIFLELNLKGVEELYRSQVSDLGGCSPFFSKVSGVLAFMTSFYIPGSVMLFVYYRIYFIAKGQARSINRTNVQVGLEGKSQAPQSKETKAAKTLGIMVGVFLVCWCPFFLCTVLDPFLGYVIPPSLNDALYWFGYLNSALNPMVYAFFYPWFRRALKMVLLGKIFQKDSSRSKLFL

Row | Compound | Ki (mouse TAAR1) [µM] | Ki (rat TAAR1) [µM]
1 | N#Cc1ccc(-n2cc(C(=O)Nc3ccc([C@H]4CNCCO4)cc3Cl)cn2)cc1 [Example 103, (S)—N-(2-Chloro-4-(morpholin-2-yl)phenyl)-1-(4-cyanophenyl)-1H-pyrazole-4-carboxamide hydrochloride] | 0.0052 | 0.0031
2 | O=C(Nc1ccc([C@@H]2CNCCO2)c(F)c1)c1cnn(-c2ccc(OC(F)F)cc2)c1 [Example 86, (R)-1-(4-(Difluoromethoxy)phenyl)-N-(3-fluoro-4-(morpholin-2-yl)phenyl)-1H-pyrazole-4-carboxamide hydrochloride] | 0.0023 | 0.0007
3 | O=C(Nc1ccc([C@H]2CNCCO2)cc1F)c1cnn(-c2cncc(C(F)(F)F)n2)c1 [Example 125, (S)—N-(2-Fluoro-4-(morpholin-2-yl)phenyl)-1-(6-(trifluoromethyl)pyrazin-2-yl)-1H-pyrazole-4-carboxamide hydrochloride] | 0.0182 | 0.0076
4 | N#Cc1ccc(OC(F)F)c(NC(=O)Nc2ccc([C@@H]3CNCCO3)cc2Cl)c1 [Example 47, (R)-1-(2-Chloro-4-(morpholin-2-yl)phenyl)-3-(5-cyano-2-(difluoromethoxy)phenyl)urea] | 0.002 | 0.0012
